Values joined by “and” are separate entries in the source; they are usually repeats but may differ in a detail not shown here. Identical values can stand only once. Inconclusive results and toxic doses are left out.
Tested on: BDF1 mice, P388 leukemia ip, median survival T/C
Assay: NCI In Vivo Anticancer Drug Screen. Data for tumor model P388 Leukemia (intraperitoneal) in B6D2F1 (BDF1) mice
Details: endpoint: median survival time, higher = longer survival
Outline: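 Vehicle-dosed animals serve as the reference; survival of compound-dosed, tumour-implanted mice is divided by it.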

[1] = dose: 50.0 mg/kg/injection, schedule: Q01DX009 (ip), vehicle: saline with Tween-80
[2] = dose: 100.0 mg/kg/injection, schedule: Q01DX009 (ip), vehicle: saline with Tween-80
[3] = dose: 25.0 mg/kg/injection, schedule: Q01DX009 (ip), vehicle: Klucel (hydroxypropylcellulose) (HPC)
[4] = dose: 50.0 mg/kg/injection, schedule: Q01DX009 (ip), vehicle: Klucel (hydroxypropylcellulose) (HPC)
[5] = dose: 100.0 mg/kg/injection, schedule: Q01DX009 (ip), vehicle: Klucel (hydroxypropylcellulose) (HPC)
[6] = dose: 100.0 mg/kg/injection, schedule: Q04DX003 (ip), vehicle: Klucel (hydroxypropylcellulose) (HPC)
[7] = dose: 200.0 mg/kg/injection, schedule: Q04DX003 (ip), vehicle: Klucel (hydroxypropylcellulose) (HPC)
[8] = dose: 100.0 mg/kg/injection, schedule: Q04DX003 (ip), vehicle: saline with Tween-80
[9] = dose: 200.0 mg/kg/injection, schedule: Q04DX003 (ip), vehicle: saline with Tween-80
[10] = dose: 400.0 mg/kg/injection, schedule: Q04DX003 (ip), vehicle: saline with Tween-80
[11] = dose: 200.0 mg/kg/injection, schedule: Q01DX009 (ip), vehicle: saline with Tween-80
[12] = dose: 50.0 mg/kg/injection, schedule: Q01DX001 (ip), vehicle: saline sonified
[13] = dose: 100.0 mg/kg/injection, schedule: Q01DX001 (ip), vehicle: saline sonified
[14] = dose: 75.0 mg/kg/injection, schedule: Q01DX009 (ip), vehicle: Klucel (hydroxypropylcellulose) (HPC)
[15] = dose: 50.0 mg/kg/injection, schedule: Q04DX003 (ip), vehicle: Klucel (hydroxypropylcellulose) (HPC)

`NC(=O)NN=C1CSSC1` was tested, and the T/C (dose: 0.78 mg/kg/injection, schedule: Q01DX009 (ip), vehicle: saline with Tween-80) was 103 % of control, the T/C (dose: 0.78 mg/kg/injection, schedule: Q04DX003 (ip), vehicle: saline with Tween-80) was 104 % of control and the T/C (dose: 1.56 mg/kg/injection, schedule: Q01DX009 (ip), vehicle: saline with Tween-80) was 94 % of control. For the same molecule, the T/C (dose: 1.56 mg/kg/injection, schedule: Q04DX003 (ip), vehicle: saline with Tween-80) was 91 % of control, the T/C (dose: 3.12 mg/kg/injection, schedule: Q01DX009 (ip), vehicle: saline with Tween-80) was 92 % of control and the T/C (dose: 3.12 mg/kg/injection, schedule: Q04DX003 (ip), vehicle: saline with Tween-80) was 113 % of control. For the same molecule, the T/C (dose: 6.25 mg/kg/injection, schedule: Q01DX009 (ip), vehicle: saline with Tween-80) was 92 % of control, the T/C (dose: 6.25 mg/kg/injection, schedule: Q04DX003 (ip), vehicle: saline with Tween-80) was 100 % of control and the T/C (dose: 12.5 mg/kg/injection, schedule: Q01DX009 (ip), vehicle: saline with Tween-80) was 94 % of control. For the same molecule, the T/C (dose: 12.5 mg/kg/injection, schedule: Q04DX003 (ip), vehicle: saline with Tween-80) was 95 % of control.

For `O=C(O)/C=N/NS(=O)(=O)/C=C/c1ccccc1`, the T/C (dose: 50.0 mg/kg/injection, schedule: Q01DX009 (ip), vehicle: other) was 155 % of control and the T/C (dose: 100.0 mg/kg/injection, schedule: Q01DX009 (ip), vehicle: other) was 186 % of control.

With `CCOC(=O)C1=C(C)NC(C)=C(C(=O)OCC)C1c1ccc([N+](=O)[O-])s1` the T/C [1] was 106 % of control and the T/C [2] was 99 % of control.

`CC(C)(C)CC(=O)OCCC[N+](C)(C)[O-]` was tested, and the T/C (dose: 100.0 mg/kg/injection, schedule: Q01DX005 (ip), vehicle: water) was 100 % of control and the T/C (dose: 200.0 mg/kg/injection, schedule: Q01DX005 (ip), vehicle: water) was 100 % of control.

In the case of `COc1cc(NS(=O)(=O)c2ccccc2)ccc1C`, the T/C [3] is reported as 100 % of control, the T/C [4] is reported as 100 % of control and the T/C [5] is reported as 89 % of control and 110 % of control. The T/C [6] was 104 % of control, the T/C [7] was 95 % of control and the T/C (dose: 400.0 mg/kg/injection, schedule: Q04DX003 (ip), vehicle: Klucel (hydroxypropylcellulose) (HPC)) was 95 % of control.

In the case of `Cc1cc(N(C)C)c2ccc3cc4ccccc4cc3c2n1`, the T/C (dose: 25.0 mg/kg/injection, schedule: Q01DX009 (ip), vehicle: saline with Tween-80) is reported as 95 % of control, the T/C [1] is reported as 95 % of control and 114 % of control and the T/C [2] is reported as 92 % of control and 121 % of control.

In the case of `O=C(O)/C(=C\c1ccccc1Br)c1ccc(C(F)(F)F)cc1[N+](=O)[O-]`, the T/C (dose: 75.0 mg/kg/injection, schedule: Q01DX001 (ip), vehicle: saline with Tween-80) is reported as 100 % of control, the T/C (dose: 150.0 mg/kg/injection, schedule: Q01DX001 (ip), vehicle: saline with Tween-80) is reported as 95 % of control and the T/C (dose: 300.0 mg/kg/injection, schedule: Q01DX001 (ip), vehicle: saline with Tween-80) is reported as 100 % of control.

For `C1CC[N-]CC1.[Cl][Pt+2][Cl].[NH-]C1CC1`, the T/C (dose: 1.5 mg/kg/injection, schedule: Q01DX005 (ip), vehicle: distilled water + Tween-80) was 153 % of control, the T/C (dose: 1.5 mg/kg/injection, schedule: Q01DX005 (ip), vehicle: water) was 150 % of control and the T/C (dose: 3.0 mg/kg/injection, schedule: Q01DX005 (ip), vehicle: water) was 164 % of control. For the same molecule, the T/C (dose: 6.0 mg/kg/injection, schedule: Q01DX005 (ip), vehicle: distilled water + Tween-80) was 157 % of control, the T/C (dose: 6.0 mg/kg/injection, schedule: Q01DX005 (ip), vehicle: water) was 185 % of control and the T/C (dose: 12.0 mg/kg/injection, schedule: Q01DX005 (ip), vehicle: distilled water + Tween-80) was 176 % of control. The T/C (dose: 12.0 mg/kg/injection, schedule: Q01DX005 (ip), vehicle: water) was 192 % of control.

`COC(=O)C1(C)CCC(c2ccc(OC)cc2)C(CC(=O)O)C1=O` (stereo unspecified) was tested, and the T/C (dose: 100.0 mg/kg/injection, schedule: Q01DX009 (ip), vehicle: saline) was 95 % of control, the T/C (dose: 100.0 mg/kg/injection, schedule: Q04DX003 (ip), vehicle: saline) was 100 % of control and the T/C (dose: 200.0 mg/kg/injection, schedule: Q01DX009 (ip), vehicle: saline) was 104 % of control. For the same molecule, the T/C (dose: 200.0 mg/kg/injection, schedule: Q04DX003 (ip), vehicle: saline) was 119 % of control, the T/C (dose: 400.0 mg/kg/injection, schedule: Q01DX009 (ip), vehicle: saline) was 109 % of control and the T/C (dose: 400.0 mg/kg/injection, schedule: Q04DX003 (ip), vehicle: saline) was 96 % of control.

In the case of `O=[N+]([O-])c1cccc(OCCOc2ccccc2)c1`, the T/C [8] is reported as 100 % of control, the T/C [9] is reported as 115 % of control and the T/C [10] is reported as 105 % of control.

In the case of `C=CCSc1nc(N)nc2nc[nH]c12`, the T/C (dose: 100.0 mg/kg/injection, schedule: Q01DX009 (ip), vehicle: saline sonified) is reported as 110 % of control, the T/C [8] is reported as 104 % of control and the T/C [9] is reported as 100 % of control. For the same molecule, the T/C [10] was 109 % of control.

`CCCCNC(=O)n1nnc2ccccc21` was tested, and the T/C [1] was 89 % of control, the T/C [2] was 106 % of control and the T/C [11] was 106 % of control.

With `CCOC(=O)CCC(NC(=O)c1cc(Cl)c(N(C)S(=O)(=O)c2ccc(C)cc2)cc1Cl)C(=O)OCC` (stereo unspecified) the T/C (dose: 25.0 mg/kg/injection, schedule: Q01DX001 (ip), vehicle: saline sonified) was 109 % of control, the T/C [12] was 104 % of control and the T/C [13] was 104 % of control.

With `O=C1NC(c2cccc3ccccc23)Nc2ccc(Cl)cc21` (stereo unspecified) the T/C [4] was 160 % of control, the T/C [14] was 155 % of control and the T/C [5] was 111 % of control.

For `Nc1nc(=S)c2[nH]c(N=Nc3ccc(S(=O)(=O)Nc4ccccn4)cc3)nc2[nH]1`, the T/C (dose: 12.5 mg/kg/injection, schedule: Q01DX009 (ip), vehicle: Klucel (hydroxypropylcellulose) (HPC)) was 108 % of control, the T/C [3] was 91 % of control and the T/C [4] was 90 % of control. For the same molecule, the T/C [15] was 87 % of control, the T/C [6] was 116 % of control and the T/C [7] was 104 % of control.

In the case of `CCCCCC1(O)C2CCCC1CCC2` (stereo unspecified), the T/C [12] is reported as 105 % of control, the T/C (dose: 50.0 mg/kg/injection, schedule: Q01DX001 (ip), vehicle: suspension in saline) is reported as 98 % of control and the T/C [13] is reported as 105 % of control. For the same molecule, the T/C (dose: 100.0 mg/kg/injection, schedule: Q01DX001 (ip), vehicle: suspension in saline) was 104 % of control and the T/C (dose: 200.0 mg/kg/injection, schedule: Q01DX001 (ip), vehicle: suspension in saline) was 107 % of control.

With `C=C1C(=O)OC(C)(C)C1(C)C` the T/C (dose: 12.5 mg/kg/injection, schedule: Q01DX009 (ip), vehicle: saline) was 105 % of control, the T/C (dose: 25.0 mg/kg/injection, schedule: Q01DX009 (ip), vehicle: saline) was 98 % of control and the T/C (dose: 50.0 mg/kg/injection, schedule: Q01DX009 (ip), vehicle: saline) was 86 % of control and 88 % of control.

For `CCC(C)Nc1ccccc1` (stereo unspecified), the T/C [15] was 95 % of control, the T/C [6] was 100 % of control and the T/C [7] was 108 % of control.

For `CCn1cnc2c(SC)ncnc21`, the T/C (dose: 18.75 mg/kg/injection, schedule: Q01DX009 (ip), vehicle: saline) was 109 % of control, the T/C (dose: 25.0 mg/kg/injection, schedule: Q04DX003 (ip), vehicle: saline) was 86 % of control and the T/C (dose: 37.5 mg/kg/injection, schedule: Q01DX009 (ip), vehicle: saline) was 100 % of control. For the same molecule, the T/C (dose: 50.0 mg/kg/injection, schedule: Q04DX003 (ip), vehicle: saline) was 104 % of control, the T/C (dose: 75.0 mg/kg/injection, schedule: Q01DX009 (ip), vehicle: saline) was 104 % of control and the T/C (dose: 75.0 mg/kg/injection, schedule: Q04DX003 (ip), vehicle: Klucel (hydroxypropylcellulose) (HPC)) was 95 % of control.

With `O=C1NC(=O)C(c2ccccc2)(c2ccc(Cl)cc2Cl)N1` (stereo unspecified) the T/C [2] was 95 % of control, the T/C [8] was 100 % of control and the T/C [11] was 91 % of control. For the same molecule, the T/C [9] was 90 % of control and the T/C [10] was 100 % of control.

In the case of `COc1ccc(/C=C2\CCCC3=C2N=C2SCC(=O)N2C3c2ccc(OC)cc2)cc1` (stereo unspecified), the T/C [8] is reported as 90 % of control and the T/C [10] is reported as 90 % of control.

For `COc1cccc2c1C(=O)c1c(O)c3c(c(O)c1C2=O)C[C@@](O)(C(C)=O)C[C@@H]3OC1CC(NC(=O)c2ccncc2)C(O)C(C)O1` (stereo partly specified), the T/C (dose: 3.13 mg/kg/injection, schedule: Q01DX009 (ip), vehicle: water) was 150 % of control, the T/C (dose: 6.25 mg/kg/injection, schedule: Q01DX009 (ip), vehicle: water) was 154 % of control and the T/C (dose: 12.5 mg/kg/injection, schedule: Q01DX009 (ip), vehicle: water) was 159 % of control.

For `OCn1cnc2c(SC3CCCC3)ncnc21`, the T/C [14] was 120 % of control.

Source: PubChem BioAssay AID328 (DTP/NCI, 2004)
